Laboratory results reported in patent US20250011365A1, “ECHINOCANDIN-BASED DRUG, AND PREPARATION METHOD THEREFOR AND USE THEREOF” (Shenzhen Sungening Biological Co., Ltd, priority 2023, published 2025).
Numbered stars: 1 amine (or outer) side, 2 acyl side, 3 side chain; on linkers, the order of the positions; unused ones are H or OH. Bridge positions count the residues as written; N and C are the ends. Square brackets hold non-standard residues; d marks the D form. Peptide text beside a SMILES is read from it. * marks the point of attachment. Orn(4R-OH,5R-OCH2CH2NMe3+) = C[N+](C)(C)CCO[C@@H](N[*:3])[C@H](O)C[C@H](N[*:1])C(=O)[*:2]; hTyr(3S-OH,4S-OH) = N[C@H](C(=O)O)[C@H](O)[C@@H](O)c1ccc(O)cc1; X2 = CCCCCOc1ccc(C#Cc2ccc3cc(C(=O)*)ccc3c2)c(F)c1F; X4 = CCCCCOc1c(F)cc(C#Cc2ccc3cc(C(=O)*)ccc3c2)cc1F; Pro(3S-OH,4S-Me) = C[C@H]1CN[C@H](C(=O)O)[C@H]1O; Hyp = O=C(O)[C@@H]1C[C@@H](O)CN1

Assays:
Type in all cases: cell-based
[1] = tested on: Aspergillus fumigatus ATCC 204305; assay: MEC assay, Aspergillus standard strain (CLSI M38-A2); conditions: 21-26 h, 28° C.
Description: After gradient dilution of test compounds, an MIC assay was performed on a Candida standard strain, and an MEC assay was performed on an Aspergillus standard strain.
The colonies on the plate were covered with 0.85% physiological saline (1 mL) or sterile water (polysorbate 20 was added to a final concentration of 0.1%-0.01%). […] The resuspension of spore hyphae was transferred to a sterile test tube, and left to stand for 3-5 min to precipitate heavier particles. The homogeneous suspension on the upper layer was transferred to a new sterile test tube, and the tube was capped closely, and subjected to vortex shaking for 15 s (note: the suspension can produce an aerosol when the cap is reopened). The concentration of the suspension was adjusted to an OD value of 0.09-0.13 at 530 nm by using a spectrophotometer. […] Within 2 h after dilution, 100 μL of the diluted suspension was added to each well in a 96-well plate (the concentration of spores in the final drug sensitive plate should be 0.4×10^4-5×10^4 CFU/mL).
In order to accurately determine MEC value, vortex oscillation should not be allowed before reading the plate.

[2] = tested on: Cryptococcus neoformans ATCC 208821; assay: MIC assay, yeast-type fungi (CLSI M27-A3); conditions: ATCC208821, 24 h, 35° C.
[3] = tested on: Pichia guilliermondii ATCC 6260; assay: MIC assay, yeast-type fungi (CLSI M27-A3); conditions: Meyerozyma guilliermondii, ATCC6260, 24 h, 35° C.
Description: (§1) After gradient dilution of test compounds, an MIC assay was performed on a Candida standard strain, and an MEC assay was performed on an Aspergillus standard strain. […] A cryopreserved strain was passaged at least 2 times. A single colony was picked and resuspended in a physiological saline or sterile water tube, and the tube was subjected to vortex shaking. The Candida suspension was adjusted to 0.5 McF (1×10^6-5×10^6 CFU/mL) at a wavelength of 530 nm by using a spectrophotometer. After being diluted 50 times with physiological saline, the Candida suspension was diluted 20 times with 1×RPMI 1640 broth (1×10^3-5×10^3 CFU/mL). 10 μL of the diluted Candida suspension was coated on an SDA plate for colony counting, with a range of about 10-50 single colonies. After a prepared drug sensitive plate was completely dissolved at room temperature, the Candida suspension was added to the 96-well plate by using a multi-channel pipettor at 100 μL/well. At this time, the concentration of Candida in each well should be 0.5×10^3-2.5×10^3 CFU/mL. A yeast-type fungus assay plate was placed in an incubator, and incubated for 24 h at 35° C. and 85% humidity, and then the MIC values were read. For echinocandin-based drugs, Aspergillus was incubated for 21-26 h at 28° C., and then the MEC results were read. Yeast-type fungi: A 96-well plate was attached with a disposable parafilm, shaken for uniformly mixing, and observed with naked eyes by using a plate reader microscope. […] Pictures were taken and saved by using an automated plate reader.

[4] = tested on: Candida albicans ATCC 76485; assay: MIC assay, Candida standard strain (CLSI M27-A3); conditions: ATCC76485, 24 h, 35° C.
Description: as §1

[5] = tested on: C. parapsilosis ATCC 22019; assay: MIC assay, Candida standard strain (CLSI M27-A3); conditions: Lodderomyces parapsilosis, ATCC22019; C. parapsilosis ATCC 22019 (quality-control strain); 24 h, 35° C.
Description: as §1

[6] = tested on: Candida albicans CICC 1943; assay: MIC assay, Candida standard strain (CLSI M27-A3); conditions: CICC1943, 24 h, 35° C.
Description: as §1

C. glabrata ATCC 15126 = assay: MIC assay, Candida standard strain (CLSI M27-A3); conditions: Nakaseomyces glabratus, ATCC15126, 24 h, 35° C.
Description: as §1

[7] = tested on: Candida albicans ATCC 90029; assay: MIC assay, Candida standard strain (CLSI M27-A3); conditions: ATCC90029, 24 h, 35° C.
Description: as §1

[8] = tested on: Candida albicans ATCC MYA-574; assay: MIC assay, Candida standard strain (CLSI M27-A3); conditions: 24 h, 35° C.
Description: as §1

[9] = tested on: Candida albicans ATCC 90028; assay: MIC assay, Candida standard strain (CLSI M27-A3); conditions: ATCC90028, 24 h, 35° C., >50% growth inhibition
Description: as §1

[10] = tested on: Candida albicans ATCC 64124; assay: MIC assay, Candida standard strain (CLSI M27-A3); conditions: ATCC64124, 24 h, 35° C.
Description: as §1

[11] = tested on: Candida albicans ATCC 14053; assay: MIC assay, Candida standard strain (CLSI M27-A3); conditions: ATCC14053, 24 h, 35° C.
Description: as §1

[12] = tested on: Candida albicans ATCC MYA-1023; assay: MIC assay, Candida standard strain (CLSI M27-A3); conditions: 24 h, 35° C.
Description: as §1

C. tropicalis ATCC 750 = assay: MIC assay, Candida standard strain (CLSI M27-A3); conditions: ATCC750, 24 h, 35° C.
Description: as §1

C. krusei ATCC 6258 = assay: MIC assay, Candida standard strain (CLSI M27-A3); conditions: Pichia kudriavzevii, ATCC6258; C. krusei ATCC 6258 (quality-control strain); 24 h, 35° C.
Description: as §1

[13] = tested on: Candida albicans CMCC 98001; assay: MIC assay, Candida standard strain (CLSI M27-A3); conditions: CMCC98001, 24 h, 35° C.
Description: as §1

[14] = tested on: Candida albicans ATCC 18804; assay: MIC assay, Candida standard strain (CLSI M27-A3); conditions: ATCC18804, 24 h, 35° C.
Description: as §1

[15] = tested on: Candida albicans ATCC 10231; assay: MIC assay, Candida standard strain (CLSI M27-A3); conditions: ATCC10231, 24 h, 35° C., >50% growth inhibition
Description: as §1

[16] = tested on: Candida albicans ATCC MYA-427; assay: MIC assay, Candida standard strain (CLSI M27-A3); conditions: 24 h, 35° C.
Description: as §1

[17] = tested on: Candida albicans ATCC MYA-4788; assay: MIC assay, Candida standard strain (CLSI M27-A3); conditions: 24 h, 35° C.
Description: as §1

[18] = tested on: Candida albicans ATCC MYA-2876; assay: MIC assay, Candida standard strain (CLSI M27-A3); conditions: 24 h, 35° C.
Description: as §1

Row | Compound | MEC [1] [µg/mL] | MIC [2] [µg/mL] | MIC [3] [µg/mL] | MIC [4] [µg/mL] | MIC [5] [µg/mL] | MIC [6] [µg/mL] | MIC (C. glabrata ATCC 15126) [µg/mL] | MIC [7] [µg/mL] | MIC [8] [µg/mL] | MIC [9] [µg/mL] | MIC [10] [µg/mL] | MIC [11] [µg/mL] | MIC [12] [µg/mL] | MIC (C. tropicalis ATCC 750) [µg/mL] | MIC (C. krusei ATCC 6258) [µg/mL] | MIC [13] [µg/mL] | MIC [14] [µg/mL] | MIC [15] [µg/mL] | MIC [16] [µg/mL] | MIC [17] [µg/mL] | further results
1 | CCCCCOc1ccc(C#Cc2ccc3cc(C(=O)N[C@H]4C[C@@H](O)[C@@H](OCC[N+](C)(C)C)NC(=O)[C@@H]5[C@@H](O)[C@@H](C)CN5C(=O)[C@H]([C@@H](C)O)NC(=O)[C@H]([C@H](O)[C@@H](O)c5ccc(O)cc5)NC(=O)[C@@H]5C[C@@H](O)CN5C(=O)[C@H]([C@@H](C)O)NC4=O)ccc3c2)c(F)c1F [Example 8] (X2-[Orn(4R-OH,5R-OCH2CH2NMe3+)]T[Hyp][hTyr(3S-OH,4S-OH)]T[Pro(3S-OH,4S-Me)]; lactam 1-C) | 0.03 | 8 | 0.25 | ≤ 0.015 | 0.5 | 0.03 | 0.06 | ≤ 0.015 | ≤ 0.015 | ≤ 0.015 | ≤ 0.015 | ≤ 0.015 | ≤ 0.015 | ≤ 0.015 | 0.12 | ≤ 0.015 | ≤ 0.015 | 0.03 | 0.03 | ≤ 0.015 | MIC [18]: ≤ 0.015 µg/mL
2 | CCCCCOc1c(F)cc(C#Cc2ccc3cc(C(=O)N[C@H]4C[C@@H](O)[C@@H](OCC[N+](C)(C)C)NC(=O)[C@@H]5[C@@H](O)[C@@H](C)CN5C(=O)[C@H]([C@@H](C)O)NC(=O)[C@H]([C@H](O)[C@@H](O)c5ccc(O)cc5)NC(=O)[C@@H]5C[C@@H](O)CN5C(=O)[C@H]([C@@H](C)O)NC4=O)ccc3c2)cc1F [Example 14] (X4-[Orn(4R-OH,5R-OCH2CH2NMe3+)]T[Hyp][hTyr(3S-OH,4S-OH)]T[Pro(3S-OH,4S-Me)]; lactam 1-C) | ≤0.015 | 8 | 0.25 | ≤ 0.015 | 0.25 | 0.03 | 0.06 | ≤ 0.015 | ≤ 0.015 | ≤ 0.015 | ≤ 0.015 | ≤ 0.015 | ≤ 0.015 | ≤ 0.015 | 0.06 | ≤ 0.015 | ≤ 0.015 | 0.03 | 0.03 | ≤ 0.015 | MIC [18]: ≤ 0.015 µg/mL
